Data taken from patent publication US20240060146A1, “CHEMICAL SUBSTANCE EVALUATION SYSTEM USING MULTICOLOR LIGHT-EMITTING CELLS” (TOHOKU UNIVERSITY, priority 2020, published 2024).
Counter-ions that a name gives are not always drawn.

What was measured:
Assay type in all cases: cell-based
2H4 cells [1] = test: Evaluation of combination of IL-2 Luc LTT and IL-2 Luc assay; design: key: Positive (Pos): If the result is either LCT in the IL-2 Luc LTT or S in the IL-2 Luc assay, or both, the chemical substance is determined to be an immunosuppressive substance.; Negative (Neg): In the case other than the above, the chemical substance is determined to be a non-immunosuppressive substance; details: LCT in IL-2 Luc LTT or S in IL-2 Luc assay = Pos
Description: Positive (Pos): If the result is either LCT in the IL-2 Luc LTT or S in the IL-2 Luc assay, or both, the chemical substance is determined to be an immunosuppressive substance. Negative (Neg): In the case other than the above, the chemical substance is determined to be a non-immunosuppressive substance.

2H4 cells [2] = test: IL-2 Luc LTT: evaluation of chemical substance in 2H4 cells; details: for IL-2 Luc LTT: 1 h chemical, then 25 nM PMA and 1 μM ionomycin 24 h, class from Min % suppression (nIL2LA) and Min Inh-GAPLA
Description: (§1) 2H4 cells were established from Jurkat cells according to the method described in PTL 1. First, for the preparation of 2H4 cells, a plasmid having SLG introduced downstream of the IL-2 promoter, a plasmid having SLR introduced downstream of the G3PDH promoter, and a plasmid having SLO introduced downstream of the INF-γ promoter were prepared as internal standards. These plasmids contained a resistance gene for hygromycin B, puromycin, and neomycin downstream of SLG, SLR, and SLO, respectively. The conditions for drug selection after transfection of the host Jurkat cells were as follows: in the primary selection, the cells were cultured for 1 week in the presence of a drug. In the secondary selection culture, the cells that survived in the primary selection culture were seeded in a 96-well plate at 1 cell/well or 200 cells/well, and cultured for 2 weeks under the same drug conditions. After the secondary selection culture, the cells were subjected to clone selection from the two points of signal intensity and signal induction by drug treatment. The G3PDH promoter SLR was first introduced to establish monochromatic stable cell line Jurkat: G3PDH-SLR #14D1 cells. These cells were used as the parent cell line to introduce the INF-γ promoter SLO, thereby establishing bichromatic stable cell line Jurkat: INFγ-SLO/G3PDH-SLR #2B12 cells. Subsequently, the obtained cells were used as a parent cell line to introduce the IL-2 promoter SLG, thereby establishing trichromatic stable cell line Jurkat IL-2-SLG/INFγ-SLO/G3PDH-SLR #2H4 cells.
The chemical substances listed in Table 1 were evaluated using 2H4 cells. 2H4 cells were seeded in a 96-well plate at 1×10^4/well and treated with each chemical substance for 1 hour, followed by incubating the cells with 25 nM PMA and 1 μM ionomycin for 24 hours. After 24 hours from the treatment with PMA and ionomycin, Tripluck Assay Reagent (manufactured by Toyobo Co., Ltd.) was added, and the amount of luminescence was measured with a Phelios microplate luminometer (manufactured by Atto Corporation). For control, 2H4 cells untreated with a chemical substance were also examined in the same manner. The amount of luminescence of SLG luciferase activity (IL2LA), SLR luciferase activity (GAPLA), and SLO luciferase activity (IFNLA) was measured, and IL-2LA and IFNLA were each normalized by GAPLA and determined to be nIL2LA and nIFNLA, respectively. Thereafter, for the concentration of each chemical substance, “% suppression” and “Inh-GAPLA” were determined according to the following formulas (1) and (2), and the chemical substances were evaluated by using their minimum value (Min % suppression, Min Inh-GAPLA).
In the evaluation, for control, PMA/ionomycin-treated 2H4 cells and PMA/ionomycin-untreated 2H4 cells were also measured for nIL2LA.
(§2) % suppression={(nIL2LA in 2H4 cells untreated with a chemical substance)−(nIL2LA in 2H4 cells treated with a chemical substance)}×100/(nIL2LA in 2H4 cells untreated with a chemical substance) ---(1) Inh-GAPLA=(GAPLA in 2H4 cells treated with a chemical substance)/(GAPLA in 2H4 cells untreated with a chemical substance) ---(2)

2H4 cells [3] = test: IL-2 Luc assay: evaluation of chemical substance in 2H4 cells; details: for IL-2 Luc Assay: 1 h chemical, then PMA/ionomycin, luminescence after six hours, class from Min % suppression of nIL2LA
Description: as §1, §2
The chemical substances listed in Table 1 were evaluated using 2H4 cells. 2H4 cells were seeded in a 96-well plate at 2×10^5 cells/50 μl/well and treated with each chemical substance for 1 hour, followed by incubating the cells with 25 nM PMA and 1 µM ionomycin […]. After six hours from the treatment with PMA and ionomycin, Tripluc: Assay Reagent (manufactured by Toyobo Co., Ltd.) was added, and the amount of luminescence was measured with a Phelios microplate luminometer (manufactured by Atto Corporation). For control, 2H4 cells untreated with a chemical substance were also examined in the same manner. The amount of luminescence of SLG luciferase activity (IL2LA), SLR luciferase activity (GAPLA), and SLO luciferase activity (IFNLA) was measured, and IL-2LA and IFNLA were each normalized by GAPLA and determined to be nIL2LA and nIFNLA, respectively. Thereafter, for the concentration of each chemical substance, the value of suppression was calculated according to formula (1) above, and the chemical substances were evaluated by using their minimum value (Min suppression).

Structure (SMILES)	Evaluation of Combination (2H4 cells [1])	IL-2 Luc LTT (2H4 cells [2])	IL-2 Luc Assay (2H4 cells [3])	determination in IL-2 Luc LTT (in words) (2H4 cells [2])	determination by the IL-2 Luc assay alone (in words) (2H4 cells [3])
COc1cccc2c1C(=O)c1c(O)c3c(c(O)c1C2=O)C[C@@](O)(C(=O)CO)C[C@@H]3O[C@H]1C[C@H](N)[C@H](O)[C@H](C)O1 [Doxorubicin hydrochloride]	Pos	LCT (Min % suppression ≤−35 and Min Inh-GAPLA <0.7: Leukocyte toxic (denoted as “LCT”; determined to have cell growth inhibition action and/or metabolic activity inhibition action))	S (Min %; suppression ≥35: Suppression (denoted as “S”; determined to have immunosuppressive action))		
Nc1nc(F)nc2c1ncn2[C@@H]1O[C@H](CO)[C@@H](O)[C@@H]1O [Fludarabine]	Pos	LCT (Min % suppression ≤−35 and Min Inh-GAPLA <0.7: Leukocyte toxic (denoted as “LCT”; determined to have cell growth inhibition action and/or metabolic activity inhibition action))	A (Min suppression ≤−35: Augmentation (denoted as “A”; determined to have immunoaugmenting action))		
Nc1ccn([C@@H]2O[C@H](CO)[C@@H](O)C2(F)F)c(=O)n1 [Gemcitabine hydrochloride]	Pos	NLCT	N (−35<Min % suppression <35: No Effect (denoted as “N”; determined to not affect immunity))		
CS(=O)(=O)Nc1cc2occ(NC=O)c(=O)c2cc1Oc1ccccc1 [Igratimod]	Pos	NLCT	S (Min %; suppression ≥35: Suppression (denoted as “S”; determined to have immunosuppressive action))		
NNC(=O)c1ccncc1 [Isoniazid]	Neg	I (−35<Min % suppression <35 and 0.7≤Min Inh-GAPLA: Inconclusive (denoted as “I”; possibly not measurable due to low water solubility))	N (−35<Min % suppression <35: No Effect (denoted as “N”; determined to not affect immunity))		
Cc1c(OCC(F)(F)F)ccnc1C[S+]([O-])c1nc2ccccc2[nH]1 (stereo not shown) [Lansoprazole]	Pos	NLCT	S (Min %; suppression ≥35: Suppression (denoted as “S”; determined to have immunosuppressive action))		
Cc1oncc1C(=O)Nc1ccc(C(F)(F)F)cc1 [Leflunomide]	Pos	NLCT	S (Min %; suppression ≥35: Suppression (denoted as “S”; determined to have immunosuppressive action))		
O=C([O-])[O-].[Li+].[Li+] [Lithium carbonate]	Neg	I (−35<Min % suppression <35 and 0.7≤Min Inh-GAPLA: Inconclusive (denoted as “I”; possibly not measurable due to low water solubility))	N (−35<Min % suppression <35: No Effect (denoted as “N”; determined to not affect immunity))		
OC[C@@H](O)[C@@H](O)[C@H](O)[C@H](O)CO [Mannitol]	Neg	I (−35<Min % suppression <35 and 0.7≤Min Inh-GAPLA: Inconclusive (denoted as “I”; possibly not measurable due to low water solubility))	N (−35<Min % suppression <35: No Effect (denoted as “N”; determined to not affect immunity))		
CN(Cc1cnc2nc(N)nc(N)c2n1)c1ccc(C(=O)N[C@@H](CCC(=O)O)C(=O)O)cc1 [Methotrexate (MTX), Methotrexate]	Neg	NLCT	N (−35<Min % suppression <35: No Effect (denoted as “N”; determined to not affect immunity))		

Continued, in another order:

Evaluation of Combination (2H4 cells [1])	Structure (SMILES)	IL-2 Luc LTT (2H4 cells [2])	IL-2 Luc Assay (2H4 cells [3])	determination in IL-2 Luc LTT (in words) (2H4 cells [2])	determination by the IL-2 Luc assay alone (in words) (2H4 cells [3])
Pos	CN(C)c1ccc(O)c2c1C[C@H]1C[C@H]3[C@H](N(C)C)C(O)=C(C(N)=O)C(=O)[C@@]3(O)C(O)=C1C2=O [Minocycline (MC), Minocycline]	NLCT	S (Min %; suppression ≥35: Suppression (denoted as “S”; determined to have immunosuppressive action))		
Pos	NC(=O)c1ncn([C@@H]2O[C@H](CO)[C@@H](O)[C@H]2O)c1O [Mizoribine (MZR), Mizoribine]	LCT (Min % suppression ≤−35 and Min Inh-GAPLA <0.7: Leukocyte toxic (denoted as “LCT”; determined to have cell growth inhibition action and/or metabolic activity inhibition action))	N (−35<Min % suppression <35: No Effect (denoted as “N”; determined to not affect immunity))	inhibit cell growth and/or metabolic activity	determined to not have imnunosuppressive action
Pos	COc1c(C)c2c(c(O)c1C/C=C(\C)CCC(=O)O)C(=O)OC2 [Mycophenolic acid (MPA), Mycophenolic acid]	LCT (Min % suppression ≤−35 and Min Inh-GAPLA <0.7: Leukocyte toxic (denoted as “LCT”; determined to have cell growth inhibition action and/or metabolic activity inhibition action))	A (Min suppression ≤−35: Augmentation (denoted as “A”; determined to have immunoaugmenting action))	inhibit cell growth and/or metabolic activity	determined to not have imnunosuppressive action
Pos	NC(=O)c1cccnc1 [Nicotinamide (NA), Nicotinamide]	LCT (Min % suppression ≤−35 and Min Inh-GAPLA <0.7: Leukocyte toxic (denoted as “LCT”; determined to have cell growth inhibition action and/or metabolic activity inhibition action))	A (Min suppression ≤−35: Augmentation (denoted as “A”; determined to have immunoaugmenting action))		
Pos	CC(=O)O[C@H]1C(=O)[C@@]2(C)[C@H]([C@H](OC(=O)c3ccccc3)[C@]3(O)C[C@H](OC(=O)[C@H](O)[C@@H](NC(=O)c4ccccc4)c4ccccc4)C(C)=C1C3(C)C)[C@]1(OC(C)=O)CO[C@@H]1C[C@@H]2O [Paclitaxel]	LCT (Min % suppression ≤−35 and Min Inh-GAPLA <0.7: Leukocyte toxic (denoted as “LCT”; determined to have cell growth inhibition action and/or metabolic activity inhibition action))	S (Min %; suppression ≥35: Suppression (denoted as “S”; determined to have immunosuppressive action))		
